Results: patent US20080070867A1, “2-Imidazolone and 2-Imidazolidinone Heterocyclic Inhibitors of Tyrosine Phosphatases” (Metabasis Therapeutics, Inc., priority 2005, published 2008)

Each molecule was assayed against T1, Human recombinant PTP-1B (Homo sapiens, UniProt P18031) (assay: Assay for PTP-1B Activity (pNPP substrate)). Details: human recombinant PTP-1B (1-321) GST fusion, 2 mM pNPP, pH 7.4, 30° C., 20 min; read-out: Activity Code (IC50 range).
T1 construct: Human recombinant PTP-1B, containing amino acids 1-321, fused to GST enzyme; GST (glutathione S-transferase)
T1 sequence (P18031 1-321): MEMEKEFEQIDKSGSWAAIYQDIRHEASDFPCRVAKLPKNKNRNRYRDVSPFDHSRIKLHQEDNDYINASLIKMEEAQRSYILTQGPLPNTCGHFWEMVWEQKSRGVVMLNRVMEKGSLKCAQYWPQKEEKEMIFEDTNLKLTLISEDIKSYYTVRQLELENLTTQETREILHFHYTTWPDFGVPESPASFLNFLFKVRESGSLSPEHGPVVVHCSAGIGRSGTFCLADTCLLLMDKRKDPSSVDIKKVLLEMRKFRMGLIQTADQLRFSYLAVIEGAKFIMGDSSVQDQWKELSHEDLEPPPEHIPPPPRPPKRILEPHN
Format: biochemical
Excerpt: The activity of the compounds as modulators of protein tyrosine phosphatase, including PTP-1B, may be measured in standard assays (see, e.g., Examples 41 and 42). Briefly, the assay described herein employs human recombinant PTP-1B and a pNPP substrate in a rescue assay.
Assay for PTP-1B Activity
Enzyme: Human recombinant PTP-1B, containing amino acids 1-321, fused to GST enzyme (glutathione S-transferase) purified by affinity chromatography (Huyer et al, 1997, J. Biol. Chem., 272, 843-852).
pNPP: p-Nitrophenyl Phosphate (Calbiochem)
Assay Buffer: 50 mM HEPES (pH 7.4), 100 mM NaCl, 2 mM EDTA, 3 mM DTT
(5×) pNPP substrate: 10 mM pNPP in assay buffer
Enzyme: 1 mg/ml PTP1B (1-321), dilute 1:200 in assay buffer
Assay buffer: 50 mM HEPES (pH 7.4), 100 mM NaCl, 2 mM EDTA, 3 mM DTT
Enzyme dilution buffer: 50 mM HEPES (pH 7.4), 100 mM NaCl, 2 mM EDTA, 3 mM DTT
Substrate 198 mM p-Nitrophenyl Phosphate (pNPP) store at 4° C.
The assay was carried out at 30° C. in 96 well plates. The reaction mixture in 60 ul contained 50 mM HEPES (pH 7.4), 100 mM NaCl, 2 mM EDTA, 3 mM DTT, and 2 mM p-Nitrophenyl Phosphate (pNPP). 5 ul of the test compound (inhibitor) dissolved in DMSO or DMSO alone for control was added to each well and the plate was mixed for 2 min. The reaction was initiated by adding 20 ul of diluted PTP1B (5 ng/ul in 50 mM HEPES (pH 7.4), 100 mM NaCl, 2 mM EDTA, 3 mM DTT). After 20 min at 30° C., the enzyme reaction was terminated by adding 100 ul of 2 M K2CO3 to each well. The phosphatase activity was detected by using Victor II plate reader (Wallac) with absorbance detection at 405 nm. All the assays were done at least in duplicate. The initial rate of pNP is plotted against the concentration of inhibitor.

| Structure (SMILES) | IC50 |
| --- | --- |
| CCOC(=O)n1cc(-c2ccc(S(C)(=O)=O)cc2)n(Cc2ccc(C(F)(F)P(=O)(O)O)c(Br)c2)c1=O [Compound 1, 3-[3-Bromo-4-(difluoro-phosphono-methyl)-benzyl]-4-(4-methanesulfonyl-phenyl)-2-oxo-2,3-dihydro-imidazole-1-carboxylic acid ethyl ester] | 100 to 249 nM |
| O=C(O)c1ccc(-c2cn(Cc3ccccc3)c(=O)n2Cc2ccc(C(F)(F)P(=O)(O)O)c(Br)c2)cc1 [Compound 2, 4-{1-Benzyl-3-[3-bromo-4-(difluoro-phosphono-methyl)-benzyl]-2-oxo-2,3-dihydro-1H-imidazol-4-yl}-benzoic acid] | 250 to 2500 nM |
| CS(=O)(=O)c1ccc(-c2c[nH]c(=O)n2Cc2ccc(C(F)(F)P(=O)(O)O)c(Br)c2)cc1 [Compound 3, ({2-Bromo-4-[5-(4-methanesulfonyl-phenyl)-2-oxo-2,3-dihydro-imidazol-1-ylmethyl]-phenyl}-difluoro-methyl)-phosphonic acid] | 250 to 2500 nM |
| Cn1cc(-c2ccc(S(C)(=O)=O)cc2)n(Cc2ccc(C(F)(F)P(=O)(O)O)c(Br)c2)c1=O [Compound 4, ({2-Bromo-4-[5-(4-methanesulfonyl-phenyl)-3-methyl-2-oxo-2,3-dihydro-imidazol-1-ylmethyl]-phenyl}-difluoro-methyl)-phosphonic acid] | 100 to 249 nM |
| COC(=O)c1ccc(-c2cn(Cc3ccccc3)c(=O)n2Cc2ccc(C(F)(F)P(=O)(O)O)c(Br)c2)cc1 [Compound 6, 4-{1-Benzyl-3-[3-bromo-4-(difluoro-phosphono-methyl)-benzyl]-2-oxo-2,3-dihydro-1H-imidazol-4-yl}-benzoic acid methyl ester] | 100 to 249 nM |
| O=C(O)c1ccc(-c2c[nH]c(=O)n2Cc2ccc(C(F)(F)P(=O)(O)O)c(Br)c2)cc1 [Compound 7, 4-{3-[3-Bromo-4-(difluoro-phosphono-methyl)-benzyl]-2-oxo-2,3-dihydro-1H-imidazol-4-yl}-benzoic acid] | 250 to 2500 nM |
| O=C(O)c1ccc(-c2cn(Cc3ccccc3)c(=O)n2Cc2ccc(C(F)(F)P(=O)(O)O)c(Cl)c2)cc1 [Compound 9, 4-{1-Benzyl-3-[3-chloro-4-(difluoro-phosphono-methyl)-benzyl]-2-oxo-2,3-dihydro-1H-imidazol-4-yl}-benzoic acid] | 250 to 2500 nM |
| COC(=O)c1ccc(-c2cn(Cc3ccccc3)c(=O)n2Cc2ccc(C(F)(F)P(=O)(O)O)c(Cl)c2)cc1 [Compound 10, 4-{1-Benzyl-3-[3-chloro-4-(difluoro-phosphono-methyl)-benzyl]-2-oxo-2,3-dihydro-1H-imidazol-4-yl}-benzoic acid methyl ester] | 250 to 2500 nM |
| COC(=O)c1ccc(-c2cn(Cc3ccc(F)cc3)c(=O)n2Cc2ccc(C(F)(F)P(=O)(O)O)c(Br)c2)cc1 [Compound 11, 4-[3-[3-Bromo-4-(difluoro-phosphono-methyl)-benzyl]-1-(4-fluoro-benzyl)-2-oxo-2,3-dihydro-1H-imidazol-4-yl]-benzoic acid methyl ester] | 100 to 249 nM |
| COC(=O)c1ccc(-c2cn(CCc3ccccc3)c(=O)n2Cc2ccc(C(F)(F)P(=O)(O)O)c(Br)c2)cc1 [Compound 12, 4-{3-[3-Bromo-4-(difluoro-phosphono-methyl)-benzyl]-2-oxo-1-phenethyl-2,3-dihydro-1H-imidazol-4-yl}-benzoic acid methyl ester] | 250 to 2500 nM |

Other lines, results leading:

| IC50 | Structure (SMILES) |
| --- | --- |
| 250 to 2500 nM | O=C(O)c1ccc(-c2cn(Cc3ccc(F)cc3)c(=O)n2Cc2ccc(C(F)(F)P(=O)(O)O)c(Br)c2)cc1 [Compound 13, 4-[3-[3-Bromo-4-(difluoro-phosphono-methyl)-benzyl]-1-(4-fluoro-benzyl)-2-oxo-2,3-dihydro-1H-imidazol-4-yl]-benzoic acid] |
| 250 to 2500 nM | O=C(O)c1ccc(-c2cn(CCc3ccccc3)c(=O)n2Cc2ccc(C(F)(F)P(=O)(O)O)c(Br)c2)cc1 [Compound 14, 4-{3-[3-Bromo-4-(difluoro-phosphono-methyl)-benzyl]-2-oxo-1-phenethyl-2,3-dihydro-1H-imidazol-4-yl}-benzoic acid] |
| 100 to 249 nM | COC(=O)c1ccc(-c2cn(Cc3ccc(C#N)cc3)c(=O)n2Cc2ccc(C(F)(F)P(=O)(O)O)c(Br)c2)cc1 [Compound 15, 4-[3-[3-Bromo-4-(difluoro-phosphono-methyl)-benzyl]-1-(4-cyano-benzyl)-2-oxo-2,3-dihydro-1H-imidazol-4-yl]-benzoic acid methyl ester] |
| 250 to 2500 nM | CCOC(=O)c1ccc(-c2cn(Cc3ccccc3)c(=O)n2Cc2ccc(C(F)(F)P(=O)(O)O)c(Br)c2)cc1 [Compound 16, 4-{1-Benzyl-3-[3-bromo-4-(difluoro-phosphono-methyl)-benzyl]-2-oxo-2,3-dihydro-1H-imidazol-4-yl}-benzoic acid ethyl ester] |
| < 99 nM | CS(=O)(=O)c1ccc(-c2cn(Cc3ccccc3)c(=O)n2Cc2ccc(C(F)(F)P(=O)(O)O)c(Br)c2)cc1 [Compound 17, ({4-[3-Benzyl-5-(4-methanesulfonyl-phenyl)-2-oxo-2,3-dihydro-imidazol-1-ylmethyl]-2-bromo-phenyl}-difluoro-methyl)-phosphonic acid] |
| 100 to 249 nM | N#Cc1ccc(-c2cn(Cc3ccccc3)c(=O)n2Cc2ccc(C(F)(F)P(=O)(O)O)c(Br)c2)cc1 [Compound 20, ({4-[3-Benzyl-5-(4-cyano-phenyl)-2-oxo-2,3-dihydro-imidazol-1-ylmethyl]-2-bromo-phenyl}-difluoro-methyl)-phosphonic acid] |
| 100 to 249 nM | CS(=O)(=O)c1ccc(-c2cn(C3CC3)c(=O)n2Cc2ccc(C(F)(F)P(=O)(O)O)c(Br)c2)cc1 [Compound 21, ({2-Bromo-4-[3-cyclopropyl-5-(4-methanesulfonyl-phenyl)-2-oxo-2,3-dihydro-imidazol-1-ylmethyl]-phenyl}-difluoro-methyl)-phosphonic acid] |
| 100 to 249 nM | CS(=O)(=O)c1ccc(-c2cn(Cc3cccc(F)c3)c(=O)n2Cc2ccc(C(F)(F)P(=O)(O)O)c(Br)c2)cc1 [Compound 22, ({2-Bromo-4-[3-(3-fluoro-benzyl)-5-(4-methanesulfonyl-phenyl)-2-oxo-2,3-dihydro-imidazol-1-ylmethyl]-phenyl}-difluoro-methyl)-phosphonic acid] |
| < 99 nM | COC(=O)c1ccc(-c2cn(Cc3cc(OC)cc(OC)c3)c(=O)n2Cc2ccc(C(F)(F)P(=O)(O)O)c(Br)c2)cc1 [Compound 23, 4-[3-[3-Bromo-4-(difluoro-phosphono-methyl)-benzyl]-1-(3,5-dimethoxy-benzyl)-2-oxo-2,3-dihydro-1H-imidazol-4-yl]-benzoic acid methyl ester] |
| 100 to 249 nM | COC(=O)c1ccc(-c2cn(C3CC3)c(=O)n2Cc2ccc(C(F)(F)P(=O)(O)O)c(Br)c2)cc1 [Compound 24, 4-{3-[3-Bromo-4-(difluoro-phosphono-methyl)-benzyl]-1-cyclopropyl-2-oxo-2,3-dihydro-1H-imidazol-4-yl}-benzoic acid methyl ester] |
| 100 to 249 nM | COC(=O)c1ccc(-c2cn(Cc3ccccn3)c(=O)n2Cc2ccc(C(F)(F)P(=O)(O)O)c(Br)c2)cc1 [Compound 25, 4-{3-[3-Bromo-4-(difluoro-phosphono-methyl)-benzyl]-2-oxo-1-pyridin-2-ylmethyl-2,3-dihydro-1H-imidazol-4-yl}-benzoic acid methyl ester] |
| 100 to 249 nM | O=c1n(Cc2ccccc2)cc(-c2ccc(Cl)cc2)n1Cc1ccc(C(F)(F)P(=O)(O)O)c(Br)c1 [Compound 26, ({4-[3-Benzyl-5-(4-chloro-phenyl)-2-oxo-2,3-dihydro-imidazol-1-ylmethyl]-2-bromo-phenyl}-difluoro-methyl)-phosphonic acid] |
| 100 to 249 nM | NC(=O)c1ccc(-c2cn(Cc3ccccc3)c(=O)n2Cc2ccc(C(F)(F)P(=O)(O)O)c(Br)c2)cc1 [Compound 27, ({4-[3-Benzyl-5-(4-carbamoyl-phenyl)-2-oxo-2,3-dihydro-imidazol-1-ylmethyl]-2-bromo-phenyl}-difluoro-methyl)-phosphonic acid] |
